Experimental data taken from the NIST ThermoML archive (doi:10.1016/j.fluid.2017.08.005).
± gives the expanded uncertainty stated by the source.

Settings: Liquid, Closed cell (Static) method

vapor or sublimation pressure (273.15 K)	SMILES	vapor or sublimation pressure (293.15 K)	vapor or sublimation pressure (313.15 K)	vapor or sublimation pressure (333.15 K)	vapor or sublimation pressure (353.15 K)
3487 ± 13 kPa	O=C=O [carbon dioxide]				
4094 ± 16 kPa	C=C [ethene]				

SMILES	vapor or sublimation pressure (273.15 K)	vapor or sublimation pressure (293.15 K)	vapor or sublimation pressure (313.15 K)	vapor or sublimation pressure (333.15 K)	vapor or sublimation pressure (353.15 K)
FC(F)Cl [chlorodifluoromethane]	498 ± 3 kPa	911 ± 3 kPa	1529 ± 4 kPa	2426 ± 5 kPa	3664 ± 7 kPa
